Measurements as given in patent US20130045267A1, “METHODS OF USING AGENTS THAT MODULATE CLAUDIN EXPRESSION” (priority 2010, published 2013).

Columns and labels:
[1] = tested on: human epidermis sheet; test: TEER in human epidermal sheets (snap-well system); conditions: 1 mM; for TEER, dmem + SC_1 / TEER, dmem + SC_2 / TEER, mean SC: T0 = 1.00
Description: Epidermal sheets were obtained from discarded human skin using a weck blade (0.08 inch). Epidermal samples were mounted in an adapted snap-well system (Pierro et al., “Zonula Occludens Toxin Structure-Function Analysis, Identification of the Fragment Biologically Active on Tight Junctions and of the Zonulin Receptor Binding Domain,” J. Biol.

[2] = tested on: human cultured keratinocytes and reconstructed human epidermis; conditions: literature (Kurasawa et al. 2009); cited from earlier work
[3] = tested on: primary human keratinocytes (PHK); test: Trans Epithelial Electric Resistance (TEER) in PHK monolayers; format: cell-based
Experimental: PHK were plated at a subconfluent density of 2.5−3×10^4 cells/filter in Transwell insert and cultured in Keratinocyte-SFM media until confluent. TEER was measured using an EVOMX voltohmmeter (World Precision Instruments, Sarasota, Fla.). The resistance of cell-free filters was subtracted from each experimental value.
(§1) PHK were plated on glass coverslips at 2-3×10^5 cells/well in a 6-well plate or at 2-3×10^4 cells/filter in Transwell insert (Costar; PET membrane, 0.4 μm pore size, 6.5 mm insert) in Keratinocyte-SFM without antibiotics. The next day after plating, cells were transfected with claudin-1 specific or control (scrambled) siRNAs (Santa Cruz) using Lipofectamine™ 2000 transfection Reagent (Invitrogen). TEER and permeability experiments were conducted 48 hours after PHK were switched to differentiation media.
TEER was measured in PHK as described above. PHK were stimulated with S. aureus-derived peptidoglycan (PGN, 0.2-20 μg/ml, n=3-7) (FIG. 19A), Malp-2 (10-1000 ng/ml, n=3) (FIG. 19B), and Pam3CSK4 a TLR1/2 ligand (0.01-20 μg/ml, n=3-6) (FIG. 19C). Data are presented by analyzing the area under the TEER curve and normalized to the mean values for the control group (media alone)*p<0.05; **p<0.01.

[4] = tested on: CLDN1 mRNA; test: qPCR of CLDN1 mRNA in PHK treated with PPARγ agonist; format: cell-based, human; conditions: 5 μM, PHK differentiated in high Calcium media (DMEM) 24 h
Experimental: (§2) PHK were differentiated in high Calcium media (DMEM) in the presence of CIG 5 μM in DMSO or media with equivalent amount of DMSO alone, for 24 h. Total RNA was extracted from PHK using the QlAshredder spin column (Qiagen) and RNeasy RNA isolation kits (Qiagen). The quality of total RNA samples (RNA Integrity Number, RIN) was assessed using an Agilent 2100 Bioanalyzer (Agilent Technologies, Palo Alto, Calif.).
(§3) qPCR was performed using the iScript™ cDNA Synthesis kit and iQ™ SYBER Green Supermix assay system (Bio-Rad Laboratories). All PCR amplifications were carried out in triplicate on an iQ5 Multicolor real-time PCR detection system (Bio-Rad). Primers were designed and synthesized by Integrated DNA Technologies. Relative gene expression was calculated by using the 2^−ΔΔCt method, as previously described. The normalized Ct value of each sample was calculated using GAPDH as an endogenous control gene.

[5] = tested on: occludin mRNA; test: qPCR of occludin mRNA in PHK treated with PPARγ agonist; format: cell-based, human; conditions: 5 μM, PHK differentiated in high Calcium media (DMEM) 24 h
Experimental: as §2, §3

[6] = tested on: claudin-1; test: Western blot of claudin-1 protein in primary human keratinocytes; format: cell-based; conditions: 50 ng/ml; for claudin-1 expression over control: 48 hours, differentiating PHK, n=3; for claudin-1 expression by Western blot: PHK differentiated 48 h
Experimental: Human keratinocytes were isolated from neonatal foreskin. Poumay et al., “Basal Detachment of the Epidermis Using Dispase: Tissue Spatial Organization and Fate of Integrin Alpha 6 Beta 4 and Hemidesmosomes,” J. Invest. Dermatol. 102:111-7 (1994), which is hereby incorporated by reference in its entirety. PHK were cultured in Keratinocyte-SFM (Invitrogen/Gibco) with 1% Pen/Strep, 0.2% Amphotericin B (Invitrogen/Gibco). To differentiate PHK, cells were grown in DMEM (Invitrogen/Gibco) with 10% heat-inactivated fetal bovine serum (Invitrogen/Gibco) and 1% Pen/Strep, 0.2% Amphotericin B (Invitrogen/Gibco). For TJ modulation experiments, the following cytokines were added alone or in combination to the differentiation media; human IL-4 (50 ng/ml; R&D system) and IL-13 (50 ng/ml; R&D system).
PHK were lysed on ice in RIPA lysis buffer (20 mM Tris, 50 mM NaCl, 2 mM EDTA, 2 mM EGTA, 1% sodium deoxycholate, 1% TX-100, and 2% SDS, pH 7.4), with 1:100 Protease Inhibitor Cocktail (Sigma), 1:100 Phosphatase Inhibitor Cocktail ([…] for 30 min at 4° C. The samples were heated at 95° C. for 10 min and then centrifuged at 14,000 rpm for 15 min. Forty μg of protein, determined by BCA (Pierce) in NuPage LDS Sample Buffer (Invitrogen) was applied to 4-12% NuPage Bis-Tris gels (Invitrogen). Electrophoresis was performed under reducing conditions with MES SDS Buffer (Invitrogen). Membranes were incubated in blotting solution (5% non-fat dry milk in PBS+0.05% Tween 20) at RT for 1 h and then incubated with primary antibodies; claudin-1 (JAY.8; Zymed), occludin (OC/3F10; Zymed) and GAPDH (FL-355; Santa Cruz). An HRP-linked secondary antibody (GE Healthcare) was used with ECL (GE Healthcare) to visualize bands by autoradiography with Kodak BioMax MR film. The pixel intensity of each band was estimated with Image J.
as §1

[7] = tested on: occludin and ZO-1; test: Expression of occludin and ZO-1 in PHK differentiated with Th2 cytokines; format: cell-based, human; conditions: PHK differentiated with cytokine
Experimental: Human keratinocytes were isolated from neonatal foreskin. Poumay et al., “Basal Detachment of the Epidermis Using Dispase: Tissue Spatial Organization and Fate of Integrin Alpha 6 Beta 4 and Hemidesmosomes,” J. Invest. Dermatol. 102:111-7 (1994), which is hereby incorporated by reference in its entirety. PHK were cultured in Keratinocyte-SFM (Invitrogen/Gibco) with 1% Pen/Strep, 0.2% Amphotericin B (Invitrogen/Gibco). To differentiate PHK, cells were grown in DMEM (Invitrogen/Gibco) with 10% heat-inactivated fetal bovine serum (Invitrogen/Gibco) and 1% Pen/Strep, 0.2% Amphotericin B (Invitrogen/Gibco). For TJ modulation experiments, the following cytokines were added alone or in combination to the differentiation media; human IL-4 (50 ng/ml; R&D system) and IL-13 (50 ng/ml; R&D system). […]
Previous studies have shown that claudin-1 expression in noncutaneous epithelial cells can be modulated by cytokines and growth factors. […] To test this possibility, PHK were differentiated in the presence or absence of Th2 cytokines, IL-4 and IL-13, and the expression of claudin-1, occludin and ZO-1 was evaluated. […]

CCCCCCCCCC(=O)[O-].[Na+] [SC, Sodium Decanoate]
TEER, dmem + SC_1 ([1]; 4 h): 0.79 | TEER, dmem + SC_2 ([1]; 4 h): 0.69 | TEER, mean SC ([1]; 4 h): 0.74 | TEER, dmem + SC_1 ([1]; 24 h): 0.56 | TEER, dmem + SC_2 ([1]; 24 h): 0.51 | TEER, mean SC ([1]; 24 h): 0.54 | TEER over media alone ([1]; after 4 hours of treatment): 0.74 fold | TEER over media alone ([1]; after 24 hours): 0.54 fold | paracellular permeability [2]: increased paracellular permeability | transepithelial electrical resistance [2]: decreased transepithelial electrical resistance

Pam3CSK4 [reference compound]
tight junction function (area under the TEER curve normalized to media alone) ([3]; PGN 0.2-20 μg/ml, Malp-2 10-1000 ng/ml, Pam3CSK4 0.01-20 μg/ml): increase tight junction function

CC1(COc2ccc(CC3SC(=O)NC3=O)cc2)CCCCC1 (stereo not shown) [ciglitazone]
CLDN1 mRNA expression over DMSO alone [4]: 1.7 fold | occludin mRNA expression [5]: 2.0 fold | occludin mRNA expression ([5]; listed as CIG): 2 fold

IL-13: human IL-13 (R&D system), Th2 cytokine
claudin-1 expression over control [6]: 1.6±0.3 fold | claudin-1 expression by Western blot [6]: enhanced expression of claudin-1 | TEER, dose response ([3]; 0.5-100 ng/ml, PHK): only a slight increase in TEER | expression of occludin and ZO-1 [7]: no effect

B1: IL-4: human IL-4 (R&D system), Th2 cytokine (protein, UniProt P05112 25-153, looked up)
Interleukin-4: HKCDITLQEIIKTLNSLTEQKTLCTELTVTDIFAASKNTTEKETFCRAATVLRQFYSHHEKDTRCLGATAQQFHRHKQLIRFLKRLDRNLWGLAGLNSCPVKEANQSTLENFLERLKTIMREKYSKCSS
claudin-1 expression over control [6]: 2.1±0.4 fold | claudin-1 expression by Western blot [6]: enhanced expression of claudin-1 | TEER peak ([3]; 50 ng/ml, PHK, n=4): 166±24 Ohms×cm^2 | expression of occludin and ZO-1 [7]: no effect
